We go through 22 compounds from ChEMBL document CHEMBL4325853, “Design, synthesis and antibacterial evaluation of 2,4-disubstituted-6-thiophenyl-pyrimidines” (Eur J Med Chem, 2019).

Holding throughout (type): functional
Assay [1] relates to Escherichia coli. Briefly: Antibacterial activity against Escherichia coli ATCC 25922 after 18 hrs by broth microdilution method. Conditions: ATCC 25922, 18 h. On the technique in general: Dilution methods test growth across graded concentrations, often in twofold steps.
Assay [2] deals with Staphylococcus epidermidis. The experiment in a line: Antibacterial activity against Staphylococcus epidermidis ATCC 12228 after 18 hrs by broth microdilution method. Particulars: ATCC 12228, 18 h.
Assay [3] deals with Bacillus subtilis. Briefly: Antibacterial activity against Bacillus subtilis 168 after 18 hrs by broth microdilution method. Conditions: subsp. subtilis str. 168, 18 h.
Assay [4] concerns Staphylococcus aureus. Briefly: Antibacterial activity against Staphylococcus aureus ATCC 29213 after 18 hrs by broth microdilution method. Particulars: ATCC 29213, 18 h.
For assay [5], the system named is Enterococcus faecalis. The experiment in a line: Antibacterial activity against Enterococcus faecalis ATCC 29212 after 18 hrs by broth microdilution method. Particulars: ATCC 29212, 18 h.
Assay [6] relates to Enterococcus faecium. The experiment in a line: Antibacterial activity against Enterococcus faecium ATCC 49624 after 18 hrs by broth microdilution method. Conditions: ATCC 49624, 18 h.
In assay [7] the test system is Staphylococcus aureus. The experiment in a line: Potency index, ratio of berberine MIC to test compound MIC for Staphylococcus aureus ATCC 29213.
Assay [8] deals with Staphylococcus epidermidis. Briefly: Potency index, ratio of berberine MIC to test compound MIC for Staphylococcus epidermidis ATCC 12228.
Assay [9] has as its system Enterococcus faecium. The experiment in a line: Potency index, ratio of berberine MIC to test compound MIC for Enterococcus faecium ATCC 49624.
For assay [10], the system named is Enterococcus faecalis. Briefly: Potency index, ratio of berberine MIC to test compound MIC for Enterococcus faecalis ATCC 29212.

SMILES strings stand for the structures. Values after ≈ are worked out from the molar mass of the structure shown.

In general, MIC90 refers to an inhibitory concentration at the 90% level, which refers to growth in some studies and to a panel of isolates in others. Low values mean greater potency, high ones weaker potency. On to `Cc1nc(CCN2C[C@@H]3C[C@H]2CN3)cc(-c2cccs2)n1`, for which the MIC90 in [1], in [2], in assay [3], in assay [4], in assay [5] and in [6] was above 192 µg/mL each time.
As for `Cc1nc(CCN2CCN(Cc3ccc(F)cc3)CC2)cc(-c2cccs2)n1`, the MIC90 is above 192 µg/mL in [1]; 192 µg/mL (≈ 484 µM) in assay [2]; 192 µg/mL (≈ 484 µM) in [3]; 192 µg/mL (≈ 484 µM) in assay [4]; above 192 µg/mL in assay [5]; above 192 µg/mL in [6].
For `Brc1ccc(CN2CCCN(CCc3cc(-c4cccs4)nc(-c4ccncc4)n3)CC2)cc1`, the MIC90 in [1] turned out to be 128 µg/mL (≈ 239 µM); in [2], 4 µg/mL (≈ 7.48 µM); in [3], 4 µg/mL (≈ 7.48 µM); in assay [4] it was 4 µg/mL (≈ 7.48 µM); in [5] it was 8 µg/mL (≈ 15 µM); in assay [6], 8 µg/mL (≈ 15 µM). The Ratio in assay [7], in [8], in [9] and in assay [10] was 50 - 100 in each case.
Turning to `Cc1nc(-c2cccs2)cc([C@H]2CN3CC[C@H]2C[C@@H]3CNC(=O)CCCC(=O)O)n1`, the MIC90 in [1] is 384 µg/mL (≈ 896 µM); in assay [2], 192 µg/mL (≈ 448 µM); in [3], 192 µg/mL (≈ 448 µM); in [4], 192 µg/mL (≈ 448 µM); in assay [5] it was above 192 µg/mL; in assay [6], above 192 µg/mL.
`Cc1nc(CCN2CCN(c3ccc(C(F)(F)F)cc3)CC2)cc(-c2cccs2)n1`: the MIC90 in [1], in [2], in assay [3], in assay [4], in assay [5] and in assay [6] was above 192 µg/mL each time.
Turning to `Cc1nc(CCNCCN2CCCCC2)cc(-c2cccs2)n1`, the MIC90 in assay [1], in assay [2], in [3], in assay [4], in assay [5] and in [6] was above 192 µg/mL throughout.
`Cc1nc(CCN2CCCN(Cc3cccc(F)c3)CC2)cc(-c2cccs2)n1`: the MIC90 in assay [1] was above 192 µg/mL; in [2] it was 128 µg/mL (≈ 312 µM); in [3], 128 µg/mL (≈ 312 µM); in assay [4], 128 µg/mL (≈ 312 µM); in [5], 192 µg/mL (≈ 468 µM); in [6], 192 µg/mL (≈ 468 µM).
`c1ccc(CN2CCCN(CCc3cc(-c4cccs4)nc(-c4ccncc4)n3)CC2)cc1`: the MIC90 in [1] was above 128 µg/mL; in [2], 16 µg/mL (≈ 35.1 µM); in [3], 16 µg/mL (≈ 35.1 µM); in assay [4], 16 µg/mL (≈ 35.1 µM); in assay [5], 32 µg/mL (≈ 70.2 µM); in assay [6] it was 32 µg/mL (≈ 70.2 µM). Besides, the Ratio in assay [7], in [8], in assay [9] and in assay [10] was 50 - 100 in each case.
As to `Fc1ccc(CN2CCCN(CCc3cc(-c4cccs4)nc(-c4ccncc4)n3)CC2)cc1`, the MIC90 in assay [1] was above 128 µg/mL; in [2], 8 µg/mL (≈ 16.9 µM); in [3] it was 8 µg/mL (≈ 16.9 µM); in assay [4], 8 µg/mL (≈ 16.9 µM); in assay [5], 16 µg/mL (≈ 33.8 µM); in assay [6] it was 16 µg/mL (≈ 33.8 µM). Also, the Ratio in [7], in assay [8], in assay [9] and in assay [10] was 50 - 100 in each case.
For `Cc1nc(CCN2CCN(C(=O)OC(C)(C)C)CC2)cc(-c2cccs2)n1`, the MIC90 in assay [1], in assay [2], in assay [3], in [4], in assay [5] and in assay [6] was above 192 µg/mL throughout.
Take `Cc1nc(CCN(C)CCN(C)Cc2ccccc2)cc(-c2cccs2)n1`: the MIC90 in [1], in [2], in assay [3], in assay [4], in assay [5] and in assay [6] was above 192 µg/mL in each case.
In the case of `Cc1nc(CCN2CCCN(Cc3ccc(F)c(F)c3)CC2)cc(-c2cccs2)n1`, the MIC90 in assay [1] was above 192 µg/mL; in [2], 128 µg/mL (≈ 299 µM); in assay [3], 128 µg/mL (≈ 299 µM); in [4], 128 µg/mL (≈ 299 µM); in assay [5], 128 µg/mL (≈ 299 µM); in [6], 128 µg/mL (≈ 299 µM).
Consider `Cc1nc(CCN2CCN(Cc3ccccc3)CC2)cc(-c2cccs2)n1`, for which the MIC90 in [1], in assay [2], in assay [3], in [4], in assay [5] and in assay [6] was above 192 µg/mL in each case.
In the case of `Cc1nc(CCN2C[C@@H]3C[C@H]2CN3C(=O)OC(C)(C)C)cc(-c2cccs2)n1`, the MIC90 in assay [1], in assay [2], in [3], in [4], in [5] and in assay [6] was above 192 µg/mL throughout.
`Cc1nc(CCN2CCCN(Cc3ccccc3)CC2)cc(-c2cccs2)n1`: the MIC90 in [1] is above 192 µg/mL; in assay [2] it was 192 µg/mL (≈ 489 µM); in assay [3], 192 µg/mL (≈ 489 µM); in [4], 192 µg/mL (≈ 489 µM); in assay [5], above 192 µg/mL; in [6] it was above 192 µg/mL.
Consider `Cc1ccc(CN2CCN(CCc3cc(-c4cccs4)nc(C)n3)CC2)cc1`, for which the MIC90 in assay [1] is above 192 µg/mL; in [2], 192 µg/mL (≈ 489 µM); in assay [3], 192 µg/mL (≈ 489 µM); in assay [4], 192 µg/mL (≈ 489 µM); in [5], above 192 µg/mL; in assay [6] it was above 192 µg/mL.
For `Cc1nc(CCNCCN2CCCC2)cc(-c2cccs2)n1`, the MIC90 in [1], in assay [2], in assay [3], in assay [4], in assay [5] and in assay [6] was above 192 µg/mL throughout.
Regarding `Cc1nc(CCNCCN2CCOCC2)cc(-c2cccs2)n1`, the MIC90 in assay [1], in assay [2], in assay [3], in assay [4], in assay [5] and in assay [6] was above 192 µg/mL in each case.
With `Cc1nc(CCN2CCCN(Cc3ccc(F)cc3)CC2)cc(-c2cccs2)n1`, the MIC90 in assay [1] was above 192 µg/mL; in assay [2] it was 128 µg/mL (≈ 312 µM); in assay [3] it was 128 µg/mL (≈ 312 µM); in [4], 128 µg/mL (≈ 312 µM); in [5], 192 µg/mL (≈ 468 µM); in assay [6], 192 µg/mL (≈ 468 µM).
`Cc1nc(CCN2CCCN(Cc3ccc(C(C)(C)C)cc3)CC2)cc(-c2cccs2)n1`: the MIC90 in [1] is 128 µg/mL (≈ 285 µM); in [2] it was 32 µg/mL (≈ 71.3 µM); in assay [3] it was 64 µg/mL (≈ 143 µM); in [4], 32 µg/mL (≈ 71.3 µM); in assay [5], 64 µg/mL (≈ 143 µM); in assay [6], 64 µg/mL (≈ 143 µM).
`Cc1nc(CCN2CCCN(Cc3ccccc3F)CC2)cc(-c2cccs2)n1`: the MIC90 in [1] was above 192 µg/mL; in assay [2] it was 192 µg/mL (≈ 468 µM); in assay [3] it was 192 µg/mL (≈ 468 µM); in assay [4] it was 192 µg/mL (≈ 468 µM); in assay [5], above 192 µg/mL; in [6], above 192 µg/mL.
As to `Cc1nc(CCN2CCNCC2)cc(-c2cccs2)n1`, the MIC90 in [1], in [2], in [3], in [4], in [5] and in [6] was above 192 µg/mL each time.
